Test results: US7199128B2, “8-N-substituted-2H-isothiazolo[5,4-b]quinolizine-3,4-diones and related compounds as antiinfective agents” (Achillion Pharmaceuticals, Inc., priority 2005, dated 2007)
In brackets after ≈: the same amount, converted by molar mass. Like-named read-outs stand apart in the source and are kept apart here.

Legend:
E. coli ATCC 25922 = assay: Minimum inhibitory concentration (MIC) assay, broth microdilution; assay type: cell-based; settings: Escherichia coli, ATCC25922; against E. coli; visible growth after 18–24 h at 37° C.
Method: (§1) The antimicrobial activity of the compounds of the invention may be evaluated by a number of methods, including the following visual minimum inhibitory concentration (MIC) assay. This assay determines the minimum concentration of compound required to inhibit growth of a bacterial strain. Minimum Inhibitory Concentration (MIC) Assay Whole-cell antibacterial activity is determined by broth microdilution using conditions recommended by the National Committee for Clinical Laboratory Standards (NCCLS). […] Test compounds are dissolved in DMSO and diluted 1:50 in Mueller-Hinton II broth (Becton-Dickinson) to produce a 256 μg/ml stock solution. In a 96-well microtiter plate, the compound solution is serially two-fold diluted in Mueller-Hinton II broth. After the compounds are diluted, a 50 μl aliquot of the test organism (˜1×10^6 cfu/mL) is added to each well of the microtiter plate. The final test concentrations range from 0.125–128 μg/mL. Inoculated plates are incubated in ambient air at 37° C. for 18 to 24 hours. The organisms selected for testing included laboratory strains S. aureus ATCC 29213 and E. coli ATCC 25922 (strains purchased from American Type Culture Collection, Manassas, Va.). The minimum inhibitory concentration (MIC) was determined as the lowest concentration of compound that inhibited visible growth of the test organism.

S. aureus ATCC 29213 = assay: as above; assay type: cell-based; settings: Staphylococcus aureus, ATCC29213; against S. aureus; visible growth after 18–24 h at 37° C.
Method: as §1

E. coli DNA gyrase = target: T1, E. coli DNA gyrase (Escherichia coli, UniProt P0AES4+P0AES6); assay: DNA gyrase supercoiling assay; assay type: biochemical; settings: read-out: inhibition of E. coli DNA gyrase supercoiling IC50
T1 construct: made in house; host or cells: E. coli
Method: Enzyme activity is measured by a supercoiling assay that monitors the ATP-dependent conversion of relaxed pBR322 DNA to the supercoiled form. Analysis is done by gel electrophoresis through 1% agarose/TBE gel. DNA is visualized with an Alpha Imager 2200 Analysis System and the IC50 determined by nonlinear regression analysis with Graphpad Prism software. E. coli DNA gyrase enzyme subunits, gyrA and gyrB, are purified to homogeneity from over-expression constructs in E. coli.

[1] = target: T2, S. aureus topoisomerase IV (Staphylococcus aureus, UniProt P0C1S7+P0C1U9); assay: Topoisomerase IV decatenation assay; assay type: biochemical
T2 construct: made in house; host or cells: E. coli
Method: Topoisomerase IV Activity
Enzyme activity is measured by a decatenation assay that monitors the ATP-dependent unlinking of DNA minicircles from kinetoplast DNA. Analysis is done by gel electrophoresis through 1% agarose/TBE gel. DNA is visualized with an Alpha Imager 2200 Analysis System and the IC50 determined by nonlinear regression analysis with Graphpad Prism software. S. aureus topoismerase IV enzyme subunits, grlA and grlB, are purified to homogeneity from over-expression plasmids in E. coli.

S. aureus DNA gyrase = S. aureus DNA gyrase (Staphylococcus aureus, UniProt P0A0K8+P20831); assay: DNA gyrase supercoiling assay; assay type: biochemical
[2] = Cell viability staining with Alamar Blue (cytotoxicity); assay type: cell-based; settings: Chinese hamster, CHO (Chinese hamster ovary) cells, positive control
Method: (§2) Optimal cell density is first determined by plating cells in a 96-well plate standard sterile tissue culture plates in 100 μl media, 10%FBS at six cell densities from 500 cells/well to 15,000 cells/well. A cell free well containing only media is used as a control. Cells are incubated at 37° C. in a 5% CO2 incubator for 24 hours. 10% culture volume (10 microliters) of Alamar Blue (Biosource, DAL1100, 100 ml) is then added. Cells are incubated at 37° C. in a 5% CO2 incubator and read in a Victor V plate reader, 544 nm excitation, 590 nm emission, at 3, 4, and 24 hours after the addition of Alamar Blue. The cell number vs. change in fluorescence is plotted to determine linearity of signal vs. cell number. The optimal density varies between 500–15,000 cells/well depending on the specific cell type. The optimal density is selected based on the highest number of cells that is still in the linear response range. Determination of Compound Cytotoxicity Cells are plated at optimal cell density in a standard sterile tissue culture 96 well plate, and incubated at 37° C. O/N in a 5% CO2 incubator. 12 to 48 hours post-plating media is removed. […] Plates are incubated 4 hours at 37° C. in a 5% CO2 incubator and read in a Victor V plate reader, 544 nm excitation, 590 nm emission. […] The change in fluorescence vs. concentration of test compound is plotted to determine the cytotoxicity of the compound.

[3] = as above; assay type: cell-based; settings: human, HEP 2 (laryngeal carcinoma) cells; HEP 2 cells, positive control
Method: as §2

T1 sequence (P0AES4 whole entry, one chain of several): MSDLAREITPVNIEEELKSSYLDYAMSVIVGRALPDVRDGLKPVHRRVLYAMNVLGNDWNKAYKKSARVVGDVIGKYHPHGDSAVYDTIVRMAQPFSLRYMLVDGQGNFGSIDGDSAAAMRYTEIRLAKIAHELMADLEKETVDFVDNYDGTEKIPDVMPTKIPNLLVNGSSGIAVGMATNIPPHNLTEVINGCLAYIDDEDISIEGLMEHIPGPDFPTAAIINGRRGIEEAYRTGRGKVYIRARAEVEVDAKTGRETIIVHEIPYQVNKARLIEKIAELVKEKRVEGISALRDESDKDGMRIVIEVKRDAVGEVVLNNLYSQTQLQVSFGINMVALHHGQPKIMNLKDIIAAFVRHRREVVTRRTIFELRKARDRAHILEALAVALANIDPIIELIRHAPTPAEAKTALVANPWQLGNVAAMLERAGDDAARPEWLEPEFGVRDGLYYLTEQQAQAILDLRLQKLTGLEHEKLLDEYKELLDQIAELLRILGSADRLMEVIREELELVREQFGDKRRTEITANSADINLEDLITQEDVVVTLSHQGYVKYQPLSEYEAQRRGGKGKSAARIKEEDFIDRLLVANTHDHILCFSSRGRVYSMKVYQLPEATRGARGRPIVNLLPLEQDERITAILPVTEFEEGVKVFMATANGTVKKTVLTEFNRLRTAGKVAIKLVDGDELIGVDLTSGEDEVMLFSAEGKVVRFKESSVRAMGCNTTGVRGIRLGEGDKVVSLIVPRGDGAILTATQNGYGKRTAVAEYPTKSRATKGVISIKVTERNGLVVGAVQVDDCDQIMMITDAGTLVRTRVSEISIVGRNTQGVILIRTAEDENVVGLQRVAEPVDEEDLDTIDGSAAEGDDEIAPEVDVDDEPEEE
Sequence of S. aureus DNA gyrase (P20831 whole entry): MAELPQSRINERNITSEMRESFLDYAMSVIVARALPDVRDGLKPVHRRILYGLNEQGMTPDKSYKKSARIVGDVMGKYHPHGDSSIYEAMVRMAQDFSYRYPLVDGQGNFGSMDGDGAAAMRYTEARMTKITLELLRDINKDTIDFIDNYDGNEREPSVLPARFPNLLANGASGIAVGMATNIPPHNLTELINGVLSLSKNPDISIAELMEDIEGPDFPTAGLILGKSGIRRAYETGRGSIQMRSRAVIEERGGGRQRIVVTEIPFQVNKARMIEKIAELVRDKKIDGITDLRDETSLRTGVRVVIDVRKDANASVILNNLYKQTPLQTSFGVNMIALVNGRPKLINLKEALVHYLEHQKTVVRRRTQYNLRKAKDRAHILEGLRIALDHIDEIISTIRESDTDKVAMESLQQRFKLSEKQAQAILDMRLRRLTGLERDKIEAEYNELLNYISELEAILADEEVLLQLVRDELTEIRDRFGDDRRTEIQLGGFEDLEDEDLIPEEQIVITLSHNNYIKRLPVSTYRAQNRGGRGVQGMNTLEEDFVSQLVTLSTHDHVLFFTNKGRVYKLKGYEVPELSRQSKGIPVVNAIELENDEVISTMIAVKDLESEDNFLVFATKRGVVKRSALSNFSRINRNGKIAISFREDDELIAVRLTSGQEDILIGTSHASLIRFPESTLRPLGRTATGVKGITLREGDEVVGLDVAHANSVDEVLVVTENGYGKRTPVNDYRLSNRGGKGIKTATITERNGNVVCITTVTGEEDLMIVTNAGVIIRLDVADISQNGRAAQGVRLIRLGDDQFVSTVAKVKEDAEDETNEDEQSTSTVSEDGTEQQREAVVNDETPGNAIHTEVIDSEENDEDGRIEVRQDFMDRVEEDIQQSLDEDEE
Sequence of S. aureus DNA gyrase (P0A0K8 whole entry): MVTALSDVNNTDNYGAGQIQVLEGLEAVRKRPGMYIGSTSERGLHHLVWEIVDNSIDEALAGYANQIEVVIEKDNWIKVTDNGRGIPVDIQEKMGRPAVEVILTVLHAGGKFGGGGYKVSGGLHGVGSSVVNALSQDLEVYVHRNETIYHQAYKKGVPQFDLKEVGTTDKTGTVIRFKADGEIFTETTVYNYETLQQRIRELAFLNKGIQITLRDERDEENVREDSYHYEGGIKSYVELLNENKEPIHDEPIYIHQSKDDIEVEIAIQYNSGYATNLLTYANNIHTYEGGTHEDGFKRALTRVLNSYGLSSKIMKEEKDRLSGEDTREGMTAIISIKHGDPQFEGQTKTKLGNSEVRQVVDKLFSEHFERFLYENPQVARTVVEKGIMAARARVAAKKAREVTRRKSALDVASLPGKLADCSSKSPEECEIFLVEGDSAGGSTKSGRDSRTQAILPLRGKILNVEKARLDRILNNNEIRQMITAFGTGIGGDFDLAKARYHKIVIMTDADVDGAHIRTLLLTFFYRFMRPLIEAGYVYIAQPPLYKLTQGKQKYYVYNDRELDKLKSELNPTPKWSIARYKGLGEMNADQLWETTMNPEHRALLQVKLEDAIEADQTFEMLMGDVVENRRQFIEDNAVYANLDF
T2 sequence (P0C1U9 whole entry): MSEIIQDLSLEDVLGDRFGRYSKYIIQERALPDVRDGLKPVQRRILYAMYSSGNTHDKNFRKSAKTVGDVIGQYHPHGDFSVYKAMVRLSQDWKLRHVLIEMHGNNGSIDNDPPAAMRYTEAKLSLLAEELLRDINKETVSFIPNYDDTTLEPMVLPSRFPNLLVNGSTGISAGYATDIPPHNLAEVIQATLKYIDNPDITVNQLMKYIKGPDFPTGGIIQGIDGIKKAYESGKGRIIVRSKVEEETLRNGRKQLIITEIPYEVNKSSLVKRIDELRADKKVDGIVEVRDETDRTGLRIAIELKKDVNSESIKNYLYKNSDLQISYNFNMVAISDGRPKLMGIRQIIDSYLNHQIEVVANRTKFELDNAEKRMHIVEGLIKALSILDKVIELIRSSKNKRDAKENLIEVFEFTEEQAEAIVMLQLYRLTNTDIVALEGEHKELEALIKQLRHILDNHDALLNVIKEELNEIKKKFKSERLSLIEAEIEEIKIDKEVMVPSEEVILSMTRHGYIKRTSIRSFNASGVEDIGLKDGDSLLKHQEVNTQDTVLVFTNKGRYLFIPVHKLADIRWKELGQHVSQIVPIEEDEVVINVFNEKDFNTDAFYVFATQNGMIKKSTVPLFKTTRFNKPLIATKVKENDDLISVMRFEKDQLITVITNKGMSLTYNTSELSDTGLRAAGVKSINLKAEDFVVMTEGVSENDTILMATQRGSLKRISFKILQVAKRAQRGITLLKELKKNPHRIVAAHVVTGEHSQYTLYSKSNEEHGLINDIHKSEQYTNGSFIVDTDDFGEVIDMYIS
T2 sequence (P0C1S7 whole entry): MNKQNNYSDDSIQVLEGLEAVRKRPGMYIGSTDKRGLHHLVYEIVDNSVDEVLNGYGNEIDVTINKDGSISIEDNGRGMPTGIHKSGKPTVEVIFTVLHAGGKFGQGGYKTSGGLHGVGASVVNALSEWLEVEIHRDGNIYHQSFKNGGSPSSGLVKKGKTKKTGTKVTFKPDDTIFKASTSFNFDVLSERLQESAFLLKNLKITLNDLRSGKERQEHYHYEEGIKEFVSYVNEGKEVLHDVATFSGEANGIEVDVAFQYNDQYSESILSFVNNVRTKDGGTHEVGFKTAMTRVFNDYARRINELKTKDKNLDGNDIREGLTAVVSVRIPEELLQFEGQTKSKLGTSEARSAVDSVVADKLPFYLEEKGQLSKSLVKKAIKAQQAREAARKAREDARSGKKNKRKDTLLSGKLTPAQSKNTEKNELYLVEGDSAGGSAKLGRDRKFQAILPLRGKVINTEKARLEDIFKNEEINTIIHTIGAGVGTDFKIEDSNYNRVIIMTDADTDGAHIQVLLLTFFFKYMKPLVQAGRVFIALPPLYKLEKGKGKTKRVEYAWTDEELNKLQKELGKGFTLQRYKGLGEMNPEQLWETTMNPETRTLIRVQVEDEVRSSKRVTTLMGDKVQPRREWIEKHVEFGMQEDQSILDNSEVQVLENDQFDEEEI

Row | Compound | MIC (E. coli ATCC 25922) [µg/mL] | MIC (S. aureus ATCC 29213) [µg/mL] | IC50 (E. coli DNA gyrase) [µM] | IC50 [1] [µM] | IC50 (S. aureus DNA gyrase) [µM] | IC50 ([1]; read-out: inhibition of S. aureus topoisomerase IV activity IC50) [µM] | CC50 [2] [µM] | CC50 [3] [µM]
1 | CCc1c2s[nH]c(=O)c2c(=O)n2ccc(N3CCC(N(C)C)C3)cc12 (racemic) [Compound 7, 8-(3-(dimethylamino)pyrrolidin-1-yl)-10-ethyl-2H-isothiazolo[5,4-b]quinolizine-3,4-dione] | 10 (≈ 27.9 µM) | 10 (≈ 27.9 µM) | < 1 | < 10 |  |  |  | 
2 | CCc1c2s[nH]c(=O)c2c(=O)n2ccc(N3CCNCC3)cc12 [Compound 8, 10-ethyl-8-(piperazin-1-yl)-2H-isothiazolo[5,4-b]quinolizine-3,4-dione] | 10 (≈ 30.3 µM) | 10 (≈ 30.3 µM) | < 1 |  | > 200 | < 10 |  | 
3 | O=c1[nH]sc2c(C3CC3)c3cc(N4CC(O)C4)c(F)cn3c(=O)c12 [Compound 9, 10-cyclopropyl-7-fluoro-8-(3-hydroxyazetidin-1-yl)-2H-isothiazolo[5,4-b]quinolizine-3,4-dione] |  |  |  |  | > 200 |  |  | 
4 | CC(C)(C)c1ccc(C(O)CCCN2CCC(C(O)(c3ccccc3)c3ccccc3)CC2)cc1 (stereo not drawn) [Terfenadine] |  |  |  |  |  |  | 4.3 to 6.5 | 3 to 5
